Reference: patent publication US7858794B2, “Tetrahydroquinoline derivatives” (N.V. Organon, priority 2002, dated 2010)

Target: T1, human FSH receptor (Homo sapiens, UniProt P23945)
T1 construct: expressed in transfected cells; host or cells: Chinese Hamster Ovary (CHO) cells
T1 sequence (P23945 18-695): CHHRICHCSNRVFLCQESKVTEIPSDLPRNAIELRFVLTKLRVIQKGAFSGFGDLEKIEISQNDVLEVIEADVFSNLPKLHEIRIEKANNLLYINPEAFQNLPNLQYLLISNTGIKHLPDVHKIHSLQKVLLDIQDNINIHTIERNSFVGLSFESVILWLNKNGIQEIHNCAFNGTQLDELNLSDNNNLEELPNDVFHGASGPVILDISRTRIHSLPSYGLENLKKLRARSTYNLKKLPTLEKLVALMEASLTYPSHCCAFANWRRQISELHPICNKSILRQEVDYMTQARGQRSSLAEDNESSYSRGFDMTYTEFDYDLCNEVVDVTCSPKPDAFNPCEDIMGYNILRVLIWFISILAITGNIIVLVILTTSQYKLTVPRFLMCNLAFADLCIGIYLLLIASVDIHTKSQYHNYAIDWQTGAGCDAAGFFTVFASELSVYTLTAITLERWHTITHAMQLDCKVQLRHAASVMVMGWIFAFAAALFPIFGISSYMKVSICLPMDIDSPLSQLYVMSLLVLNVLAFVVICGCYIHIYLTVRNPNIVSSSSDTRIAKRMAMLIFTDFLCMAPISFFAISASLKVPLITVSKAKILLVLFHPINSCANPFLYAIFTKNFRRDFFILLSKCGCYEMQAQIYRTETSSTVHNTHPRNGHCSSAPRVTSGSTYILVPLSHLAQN
Test: CHO-FSH in vitro bioactivity (CRE-luciferase reporter, agonistic or antagonistic set-up)
Format: cell-based
Conditions: CHO cells stably transfected with human FSH receptor and CRE-luciferase; either agonistic or antagonistic (rec-hFSH, 10 mU/ml) assay set-up or both / at least one of the assays; read-out: EC50 (IC50)
Procedure: FSH activity of compounds were tested in Chinese Hamster Ovary (CHO) cells stably transfected with the human FSH receptor and cotransfected with a cAMP responsive element (CRE)/promotor directing the expression of a firefly luciferase reporter gene. Binding of ligand to the Gs-coupled FSH receptor will result in an increase of cAMP, which in turn will induce an increased transactivation of the luciferase reporter construct. To test antagonistic properties recombinant FSH in a concentration that induces approximately 80% of the maximal stimulation of cAMP accumulation in the absence of test compound was added (rec-hFSH, 10 mU/ml). The luciferase signal was quantified using a luminescence counter. For test compounds, EC50 values (concentration of test compound causing half-maximal (50%) stimulation or reduction) were calculated For that purpose the software program GraphPad PRISM, version 3.0 (GraphPad software Inc., San Diego) was used.

EC50 | SMILES
< 100 nM | CC(=O)N1c2cc(OCC(=O)N(C)C)c(NC(=O)c3ccc(-c4ccccc4)cc3)cc2C(C)(c2ccccc2)CC1(C)C (stereo not shown) [Example 16, Biphenyl-4-carboxylic acid (1-acetyl-7-dimethylcarbamoylmethoxy-2,2,4-trimethyl-4-phenyl-1,2,3,4-tetrahydro-quinolin-6-yl)-amide]
< 100 nM | CC(=O)N1c2cc(N(C)C)c(NC(=O)C3CCCC3)cc2C(C)(c2ccccc2)CC1(C)C (stereo not shown) [Example 37, Cyclopentanecarboxylic acid (1-acetyl-7-dimethylamino-2,2,4-trimethyl-4-phenyl-1,2,3,4-tetrahydro-quinolin-6yl)-amide]
< 100 nM | CC(=O)N1c2cc(N(C)C)c(NC(=O)C(C)C)cc2C(C)(c2ccccc2)CC1(C)C (stereo not shown) [Example 38, N-(1-Acetyl-7-dimethylamino-2,2,4-trimethyl-4-phenyl-1,2,3,4-tetrahydro-quinolin-6-yl)-isobutyramide]
< 100 nM | CCNc1cc2c(cc1NC(=O)c1ccc(-c3ccccc3)cc1)C(C)(c1ccccc1)CC(C)(C)N2C(C)=O (stereo not shown) [Example 41, Biphenyl-4-carboxylic acid (1-acetyl-7-ethylamino-2,2,4-trimethyl-4-phenyl-1,2,3,4-tetrahydro-quinolin-6-yl)amide]
